Experimental findings from paper PMC11620503 (Antimicrobial Agents and Chemotherapy, 2024) are described below.

The test system of data set [1] is A. baumannii CDC-83 (NDM-1, OXA-23, 69). The experiment in a line: MIC, broth microdilution. Type of data set: cell-based, Acinetobacter baumannii. Particulars: agent alone. In general terms: Broth dilution looks for growth in wells or tubes with falling amounts of substance.
Data set [2] relates to Clostridium perfringens ATCC 13124. Nature of the data set: microbe, parasite or virus in culture. Particulars: ATCC13124. Type of data set: cell-based.
The next data set concerns the target CTX-Ms and PDC-11. Nature of the data set: Ki app determination, range over enzymes. As to conditions: read-out: Ki app values, range; range over CTX-Ms and PDC-11.
A further data set addresses NDM-4 (Klebsiella pneumoniae, UniProt C7C422, M154L). Nature of the data set: Ki app determination (Waley's method).
The next data set has as its target OXA-65 (Acinetobacter baumannii, UniProt Q58XD3). The experiment in a line: Ki app determination (Waley's method).
The subject of data set [3] is Peptoniphilus asaccharolyticus ATCC 14963. The experiment in a line: MIC, agar dilution, reference strains of anaerobic bacteria. The class given is cell-based. As to conditions: ATCC14963. (In general: Agar dilution tests growth on a series of plates holding different concentrations.)
The next data set addresses IMP-6 (Serratia marcescens, UniProt P52699, S214G). The experiment in a line: Ki app determination (Waley's method).
The target in a further data set is OXA-48 (Klebsiella pneumoniae, UniProt Q6XEC0). The experiment in a line: Ki app determination (Waley's method).
Data set [4] deals with Peptostreptococcus anaerobius ATCC 27337. Nature of the data set: MIC, agar dilution, reference strains of anaerobic bacteria. Type of data set: cell-based. As to conditions: ATCC27337.
The subject of data set [5] is Clostridioides difficile ATCC BAA-1870. The description is as above. Type of data set: cell-based. As to conditions: ATCCBAA1870.
The target in a further data set is SHV-2 (Klebsiella pneumoniae, UniProt P0A9Z8). Nature of the data set: Ki app determination (Waley's method).
The target in another data set is NDM-1 (Klebsiella pneumoniae, UniProt C7C422). The experiment in a line: Ki app determination (Waley's method).
The test system of data set [6] is Finegoldia magna ATCC 29328. The experiment in a line: MIC, agar dilution, reference strains of anaerobic bacteria. The class given is cell-based. As to conditions: ATCC29328.
Data set [7] concerns Bacteroides thetaiotaomicron ATCC 29741. The description is as above. Particulars: ATCC29741. Type of data set: cell-based.
Data set [8] deals with Bacteroides fragilis KUB2983. Described as above. The class given is cell-based.
In a further data set the target is KPC-3 (Klebsiella pneumoniae, UniProt Q9F663, H272Y). The experiment in a line: Ki app determination (Waley's method).
In a further data set the target is KPC-2 (Klebsiella pneumoniae, UniProt Q9F663). The experiment in a line: Ki app determination (Waley's method).
The nature of data set [9]: Free concentration of KSP-1007 at the dose effective in the infection models. Particulars: 30 mg/kg of KSP-1007; data not shown. Type of data set: in vivo, mouse.
A further data set addresses IMP-1 (Serratia marcescens, UniProt P52699). The experiment in a line: Ki app determination (Waley's method).
Data set [10] can be described thus: Intrinsic antibacterial activity, MIC. Type of data set: cell-based.
Data set [11] has as its system P. aeruginosa CDC-90 (KPC-5). Nature of the data set: Lethal mouse model of systemic infection. Particulars: Pseudomonas aeruginosa, in Mus musculus, sc, read-out: ED50 of MEM (95% confidence intervals).
Data set [12] deals with P. aeruginosa CDC-110 (VIM-2). Nature of the data set: MIC, broth microdilution. Type of data set: cell-based. Particulars: Pseudomonas aeruginosa, agent alone.
In data set [13] the test system is P. aeruginosa CDC-110 (VIM-2). Nature of the data set: Lethal mouse model of systemic infection. Particulars: Pseudomonas aeruginosa, in Mus musculus, sc, read-out: ED50 of MEM (95% confidence intervals).
Data set [14] deals with Enterobacterales (154), CDC AR Bank. Nature of the data set: MIC, broth microdilution. Type of data set: cell-based.
Data set [15] relates to Serine-carbapenemase-producing Enterobacterales (6). The experiment in a line: MIC and MBC testing. The class given is cell-based. Particulars: 6 serine-carbapenemase-producing Enterobacterales; fixed BLI concentration (μg/mL) in label.
For data set [16], the system named is P. aeruginosa CDC-90 (KPC-5). Nature of the data set: MIC, broth microdilution. Particulars: Pseudomonas aeruginosa, agent alone. Type of data set: cell-based.
In data set [17] the test system is Acinetobacter baumannii (46). Nature of the data set: MIC, broth microdilution. Type of data set: cell-based.
The test system of data set [18] is Klebsiella pneumoniae ATCC BAA-2344 (KPC-2). Nature of the data set: Lethal mouse model of systemic infection. Particulars: ATCCBAA2344, in Mus musculus.
Setting [19] is: CLSI breakpoints, marked c: breakpoints for β-lactam alone.
[20] abbreviates: fixed concentration (μg/mL) in label.

Structures are written as SMILES. In brackets after ≈: the same amount, converted by molar mass. Like-named read-outs stand apart in the source and are kept apart here.

The term MIC50 denotes the lowest concentration that inhibits either 50% of growth or 50% of the strains tested, depending on the study. A word on the MIC90: it is the lowest concentration that inhibits either 90% of growth or 90% of the strains tested, depending on the study. Lower therefore signals greater potency.

In data set [1], `CC(C)(O/N=C(\C(=O)N[C@@H]1C(=O)N2C(C(=O)[O-])=C(C[N+]3(CCNC(=O)c4ccc(O)c(O)c4Cl)CCCC3)CS[C@H]12)c1csc(N)n1)C(=O)O` [FDC, cefiderocol] yielded an MIC of 16 µg/mL (≈ 21.3 µM).
For `N[C@@H](C(=O)N1CC(Oc2ccc3c(c2C(=O)O)OB(O)CC3)C1)c1c[nH]cn1` [KSP-1007, 7-({1-[(2R)-2-amino-2-(1H-imidazol-4-yl)acetyl]azetidin-3-yl}oxy)-2-hydroxy-3,4-dihydro-2H-1,2-benzoxaborinine-8-carboxylic acid], the MIC in data set [2] is 2 µg/mL (≈ 5.18 µM); in [3], 32 µg/mL (≈ 82.9 µM); in data set [4], greater than 256 µg/mL; in [5], greater than 256 µg/mL; in data set [6] it was 128 µg/mL (≈ 331 µM); in [7], 64 µg/mL (≈ 166 µM). In addition, the results for the MIC in data set [8] and in [10] were 16 µg/mL (≈ 41.4 µM) and no less than 64 µg/mL, respectively. Also, the Ki on CTX-Ms and PDC-11 was 0.0664 to 0.79 nM; on NDM-4, 153 ± 45.2 nM; on OXA-65, 5.44 ± 1.21 nM; at IMP-6, 19900 nM; at OXA-48, 0.861 ± 0.0767 nM; at SHV-2 it was 361 ± 127 nM. Also, the Ki on NDM-1 amounted to 126 ± 58.1 nM; on KPC-3 it was 2.19 ± 0.687 nM; at KPC-2, 1.46 ± 0.0574 nM; at IMP-1, 512 ± 119 nM. In addition, the free concentration entry in data set [9] is reported as “exceeded 8 µg/mL”.
In the case of `C[C@@H](O)[C@H]1C(=O)N2C(C(=O)O)=C(S[C@@H]3CN[C@H](C(=O)N(C)C)C3)[C@H](C)[C@H]12` [MEM, meropenem], the ED50 in [11] was 54.8 mg/kg; in data set [13], 218 mg/kg; in data set [18] (read-out: ED50 of MEM (95% confidence intervals), K. pneumoniae ATCC BAA-2344, Experiment 1, single sc dose 2 h after ip inoculation, survival day 7, dose ratio in label) it was 205 mg/kg; in data set [18] (read-out: ED50 of MEM (95% confidence intervals), K. pneumoniae ATCC BAA-2344, Experiment 2, single sc dose 2 h after ip inoculation, survival day 7, dose ratio in label) it was 54.8 mg/kg. The MIC in data set [12] was determined as 64 µg/mL (≈ 167 µM); in data set [16], 32 µg/mL (≈ 83.4 µM). Besides, the “CLSI MIC interpretation I (intermediate)” value came out at 9.7% in data set [14] (setting [19]) and 0% in [17] (setting [19]). The figures for the “CLSI MIC interpretation R (resistant)” value in data set [14] (setting [19]) and in data set [17] (setting [19]) were 50% and 100%, respectively. The “CLSI MIC interpretation S (susceptible)” value in data set [14] (setting [19]) is listed as 40.3%; in [17] (setting [19]) it was 0%. In addition, the MIC50 came out at 2 µg/mL (≈ 5.22 µM) in data set [14] (setting [20]) and 32 µg/mL (≈ 83.4 µM) in data set [17] (setting [20]). In addition, the MIC90 in [14] (setting [20]) was determined as 32 µg/mL (≈ 83.4 µM). In [15], this molecule registered an MIC Range of 1 to 64 µg/mL.
